Data: US20150344457A1, “METHODS OF INHIBITING PRMT5” (EPIZYME, INC., priority 2012, published 2015)

Tests used:
PRMT5/MEP50 = molecular target: T1, PRMT5/MEP50 (Homo sapiens, UniProt O14744); assay: PRMT5 Biochemical Assay (PRMT5/MEP50 enzyme assay on peptide substrate, 3H-SAM Flashplate); conditions: Table D-2; read-out: Biochemical IC50
T1 construct: Expressed full-length human Flag-PRMT5/6His-MeP50 protein complex was purified; made in house; host or cells: Spodoptera frugiperda (SF9) insect cells, baculovirus (pDEST8)
T1 sequence (O14744 with tags, fused parts or gaps): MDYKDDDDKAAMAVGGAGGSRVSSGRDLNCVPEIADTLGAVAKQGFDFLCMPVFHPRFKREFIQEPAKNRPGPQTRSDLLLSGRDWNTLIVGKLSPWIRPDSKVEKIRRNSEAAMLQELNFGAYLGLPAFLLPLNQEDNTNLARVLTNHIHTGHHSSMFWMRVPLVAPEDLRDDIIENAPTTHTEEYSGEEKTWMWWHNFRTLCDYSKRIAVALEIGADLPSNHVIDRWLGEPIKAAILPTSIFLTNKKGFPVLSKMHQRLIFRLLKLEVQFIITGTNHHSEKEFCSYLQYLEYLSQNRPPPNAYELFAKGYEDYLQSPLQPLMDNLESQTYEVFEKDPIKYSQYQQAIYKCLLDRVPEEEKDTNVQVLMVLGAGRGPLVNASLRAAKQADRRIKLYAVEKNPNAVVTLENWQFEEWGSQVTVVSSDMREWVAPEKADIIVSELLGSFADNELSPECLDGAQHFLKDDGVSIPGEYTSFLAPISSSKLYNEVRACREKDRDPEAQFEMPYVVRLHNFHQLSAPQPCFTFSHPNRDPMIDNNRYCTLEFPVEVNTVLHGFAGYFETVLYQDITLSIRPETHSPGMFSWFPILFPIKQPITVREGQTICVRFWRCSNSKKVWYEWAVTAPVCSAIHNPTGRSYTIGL
T1 sequence (Q9BQA1 with tags, fused parts or gaps partner limits assumed): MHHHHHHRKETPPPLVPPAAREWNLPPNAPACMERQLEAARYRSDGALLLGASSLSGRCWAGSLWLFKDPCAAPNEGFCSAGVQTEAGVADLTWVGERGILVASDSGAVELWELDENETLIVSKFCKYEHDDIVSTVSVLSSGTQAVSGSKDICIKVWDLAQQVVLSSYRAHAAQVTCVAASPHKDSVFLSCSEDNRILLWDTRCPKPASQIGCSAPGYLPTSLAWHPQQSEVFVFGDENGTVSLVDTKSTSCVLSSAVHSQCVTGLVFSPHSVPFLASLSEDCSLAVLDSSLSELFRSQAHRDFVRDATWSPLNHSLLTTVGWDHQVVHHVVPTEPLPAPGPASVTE

Z-138 cells = assay: Z-138 Proliferation Assay (Cell Titer Glo, 5 days); assay type: cell-based; conditions: Homo sapiens, Table D-2
In short: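 Exponentially growing Z-138 cells (10,000 cells/ml) in RPMI 1640 with 10% FBS are exposed to nine-point 3-fold dilutions (final top concentration 20 μM, 0.2% DMSO) for 5 days at 37° C. Viability is measured as ATP by CellTiter-Glo luminescence. The 50% inhibitory concentration comes from a 4-parameter fit.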

SMILES | IC50 (PRMT5/MEP50) | EC50 (Z-138 cells)
OC(COc1cccc(-c2ccc3cnoc3c2)c1)CN1CCc2ccccc2C1 (stereo not drawn) [Compound D166] | 1 to 10 µM | > 20 µM
OC(COc1cccc(-c2ccccc2Oc2ccccc2)c1)CN1CCc2ccccc2C1 (stereo not drawn) [Compound D167] | 0.101 to 1 µM | > 20 µM
COc1ccc(-c2cccc(OCC(O)CN3CCc4ccccc4C3)c2)cc1Cl (stereo not drawn) [Compound D168] | 0.101 to 1 µM | > 20 µM
CC(=O)Nc1cccc(-c2cccc(OCC(O)CN3CCc4ccccc4C3)c2)c1 (stereo not drawn) [Compound D169] | 0.101 to 1 µM | > 20 µM
OC(COc1cccc(-c2csc3ccccc23)c1)CN1CCc2ccccc2C1 (stereo not drawn) [Compound D170] | 0.101 to 1 µM | > 20 µM
NC(=O)c1cccc(-c2cccc(OCC(O)CN3CCc4ccccc4C3)c2)c1 (stereo not drawn) [Compound D171] | 0.101 to 1 µM | > 20 µM
Cn1cnc2ccc(-c3cccc(OC[C@H](O)CN4CCc5ccccc5C4)c3)cc21 [Compound D174] | < 0.1 µM | 1 to 10 µM
CNC(=O)c1cncc(-c2cccc(OCC(O)CN3CCc4ccccc4C3)c2)c1 (stereo not drawn) [Compound D182] | 1 to 10 µM | > 20 µM
Cn1cnc(C(=O)Nc2cccc(OCC(O)CN3CCc4ccccc4C3)c2)c1 (stereo not drawn) [Compound D183] | 1 to 10 µM | > 20 µM
CNC(=O)c1cccc(-c2cccc(OCC(O)CN3CCc4ccccc4C3)c2)c1 (stereo not drawn) [Compound D186] | 0.101 to 1 µM | > 20 µM
Cc1cn(C)c2cc(-c3cccc(OCC(O)CN4CCc5ccccc5C4)c3)ccc12 (stereo not drawn) [Compound D187] | 0.101 to 1 µM | > 20 µM
Cn1cnc2ccc(-c3cccc(OCC(O)CN4CCc5ccccc5C4)c3)nc21 (stereo not drawn) [Compound D189] | < 0.1 µM | 0.101 to 1 µM
Cn1cnc2cnc(-c3cccc(OCC(O)CN4CCc5ccccc5C4)c3)nc21 (stereo not drawn) [Compound D191] | 0.101 to 1 µM | 1 to 10 µM
Cn1cnc2ccc(-c3cncc(NCC(O)CN4CCc5ccccc5C4)c3)cc21 (stereo not drawn) [Compound D199] | < 0.1 µM | 1 to 10 µM
CC(C)Oc1ccc(F)c(-c2cccc(OCC(O)CN3CCc4ccccc4C3)c2)c1 (stereo not drawn) [Compound D201] | 0.101 to 1 µM | > 20 µM

Now from value to compound, other results behind:

IC50 (PRMT5/MEP50) | SMILES | EC50 (Z-138 cells)
1 to 10 µM | Cn1ccc(C(=O)Nc2cccc(OCC(O)CN3CCc4ccccc4C3)c2)n1 (stereo not drawn) [Compound D162] | > 20 µM
0.101 to 1 µM | N#Cc1cccc(-c2cccc(OCC(O)CN3CCc4ccccc4C3)c2)c1 (stereo not drawn) [Compound D172] | > 20 µM
< 0.1 µM | Cn1ccc2ccc(-c3cccc(OCC(O)CN4CCc5ccccc5C4)c3)nc21 (stereo not drawn) [Compound D176] | > 20 µM
1 to 10 µM | COC(=O)c1cncc(-c2cccc(OCC(O)CN3CCc4ccccc4C3)c2)c1 (stereo not drawn) [Compound D180] | > 20 µM
0.101 to 1 µM | O=C(c1cccc(-c2cccc(OCC(O)CN3CCc4ccccc4C3)c2)c1)N1CCCC1 (stereo not drawn) [Compound D185] | 10 to 40 µM
0.101 to 1 µM | OC(COc1cccc(-c2ccc3ncoc3c2)c1)CN1CCc2ccccc2C1 (stereo not drawn) [Compound D188] | 10 to 40 µM
0.101 to 1 µM | OC(COc1cccc(-c2cc(OC(F)(F)F)ccc2Cl)c1)CN1CCc2ccccc2C1 (stereo not drawn) [Compound D200] | > 20 µM
0.101 to 1 µM | Cn1ncc2ccc(-c3cc(NCC(O)CN4CCc5ccccc5C4)ncn3)cc21 (stereo not drawn) [Compound D205] | > 20 µM
0.101 to 1 µM | Cn1cnc2ccc(-c3cc(NCC(O)CN4CCc5ccccc5C4)ncn3)cc21 (stereo not drawn) [Compound D207] | 1 to 10 µM
